From BindingDB's records for doi:10.1046/j.1471-4159.1998.71062558.x (F. Hoffmann-La Roche, 1998)

Target: Metabotropic glutamate receptor 2 (Homo sapiens, UniProt Q14416)
Sequence (Q14416 whole entry): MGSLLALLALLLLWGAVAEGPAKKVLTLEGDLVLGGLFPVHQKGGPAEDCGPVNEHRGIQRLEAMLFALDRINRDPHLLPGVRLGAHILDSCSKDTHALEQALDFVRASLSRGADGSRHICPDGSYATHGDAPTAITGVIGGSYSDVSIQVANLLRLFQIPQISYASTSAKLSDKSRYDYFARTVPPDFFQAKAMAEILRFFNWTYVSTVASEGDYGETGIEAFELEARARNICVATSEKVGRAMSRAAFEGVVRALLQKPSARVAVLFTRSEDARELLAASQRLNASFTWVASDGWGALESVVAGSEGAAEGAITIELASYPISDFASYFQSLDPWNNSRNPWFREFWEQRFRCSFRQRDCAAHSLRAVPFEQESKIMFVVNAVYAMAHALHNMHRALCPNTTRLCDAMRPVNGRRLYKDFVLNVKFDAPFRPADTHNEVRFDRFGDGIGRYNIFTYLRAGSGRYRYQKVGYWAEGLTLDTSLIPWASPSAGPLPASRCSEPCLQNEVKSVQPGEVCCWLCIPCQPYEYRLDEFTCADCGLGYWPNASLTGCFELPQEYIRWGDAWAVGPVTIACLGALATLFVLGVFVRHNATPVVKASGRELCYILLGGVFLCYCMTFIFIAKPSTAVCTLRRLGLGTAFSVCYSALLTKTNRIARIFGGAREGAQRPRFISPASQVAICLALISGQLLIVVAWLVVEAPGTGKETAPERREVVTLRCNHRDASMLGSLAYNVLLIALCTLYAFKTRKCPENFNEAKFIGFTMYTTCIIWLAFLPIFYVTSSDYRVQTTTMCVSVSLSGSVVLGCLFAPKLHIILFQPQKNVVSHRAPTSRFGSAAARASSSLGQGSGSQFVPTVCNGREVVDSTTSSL

Row | SMILES | Ki [nM]
1 | N[C@@H](CCP(=O)(O)O)C(=O)O | 680
2 | CC(N)(C(=O)O)c1ccc(P(=O)(O)O)cc1 (stereo unspecified) | 260
3 | C[C@@](N)(C(=O)O)c1ccc(C(=O)O)cc1 (racemic) | 334
4 | N[C@@]1(C(=O)O)CC[C@H](C(=O)O)C1 [1S, 3R-ACPD] | 9.33
5 | N[C@@H](Cn1oc(=O)[nH]c1=O)C(=O)O [2-amino-3-(3,5-dioxo[1,2,4]oxadiazolidin-2-yl)propionic acid] | 178
6 | N[C@H](CP(=O)(O)O)C(=O)O [CAS_23052-80-4] | 263
7 | CCC(N)(CCC(=O)O)C(=O)O (stereo unspecified) [CAS_5311079] | 376
8 | NC(Cn1cnc2c(=O)[nH]c(=O)[nH]c21)(C(=O)O)C1CC1C(=O)O (stereo unspecified) [CAS_5311260] | 0.078
9 | N[C@H](C(=O)O)C1[C@@H](C(=O)O)[C@@H]1C(=O)O (stereo partly specified) [DCG-IV] | 0.368
10 | N[C@H](C(=O)O)[C@H]1C[C@H]1C(=O)O [L-CCG-IV] | 0.378
11 | C[C@](N)(C(=O)O)C1C[C@@H]1C(=O)O (stereo partly specified) [MCCG-I] | 69
